# Tests used:
# [1] = system: B 697 promyelocytic cell line; test: Cytotoxicity on 697 cell line (CellTiter 96); format: cell-based; conditions: 72 hours incubation, read-out: 697 TOXICITY
# Procedure, shortened: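 Mitochondrial-function readout (CellTiter 96 Aqueous One) after 72 h compound exposure, begun 24 h post-seeding. Dose ranges: 697 cells, 1 to 10000 nM at 2×10^4 cells/well; PBMCs, 1.5 to 10000 nM at 5×10^5 cells/well.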
# [2] = Stability to Phase I metabolism in rat S9 liver fraction; format: in vitro ADME; conditions: after 90 min, 37° C.
# Procedure, shortened: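 Phase I stability in human and rat hepatic S9 at 37 °C, sampled up to 90 min. Samples were stopped with acidified acetonitrile on ice, then quantified by HPLC-UV or LC-MS/MS.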
# Stability in rat plasma = format: in vitro ADME; conditions: after 4 hours, 37° C.
# Procedure, shortened: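 Compounds incubated at 37° C in rat or human plasma at 50 μM (UV/HPLC) or 1 or 2 μM (LC-MS/MS) for 0–4 h. Reaction stopped with acidified acetonitrile on ice; percent remaining versus initial amount and plasma half-life calculated.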
# [3] = Stability to Phase I metabolism in human S9 liver fraction; format: in vitro ADME
# Method: Test compounds were incubated in rat and human liver S9 fraction at 37° C. up to 90 minutes in order to evaluate their stability to Phase I metabolism by hepatic enzymes. […] The reaction was stopped placing samples on ice bath and adding acidified acetonitrile. After centrifugation (10 minutes at 14000 rpm) an aliquot of the supernatant was diluted water, filtered with 0.45 μm regenerated cellulose syringe filters and injected in HPLC-UV or in LC-MS/MS. The percentages of the amount remaining at the various incubation times with respect to the initial amount were calculated. The intrinsic clearance was also calculated.
# [4] = Stability in human plasma; format: in vitro ADME; conditions: after 4 hours, 37° C.
# Method: In order to evaluate the stability to circulating enzymes, test compounds were incubated in human and rat plasma at 37° C. in a thermostated oscillating bath. Each test compound was incubated at μM (50 μM when the samples were analysed by UV/HPLC, 1 or 2 μM when the samples were analysed by LC-MS/MS) concentration for 0, 15, 30 min and 1, 2 and 4 hours. The reaction was stopped placing tubes on ice bath and adding acidified acetonitrile. After centrifugation for 10 minutes at 14000 rpm, an aliquot of the supernatant was diluted with water, filtered with 0.45 μm syringe filters and injected in HPLC-UV or in LC-MS/MS. The percentages of amount remaining at the various times of incubation with respect to initial amount were calculated. The half-life in plasma was also calculated.
# recombinant human HDAC6 = target: T1, recombinant human HDAC6 (Homo sapiens, UniProt Q9UBN7); test: Enzymatic screening on recombinant human HDAC6; format: biochemical; conditions: Table 2; read-out: HDAC6 IC50
# T1 sequence (Q9UBN7 1-1215): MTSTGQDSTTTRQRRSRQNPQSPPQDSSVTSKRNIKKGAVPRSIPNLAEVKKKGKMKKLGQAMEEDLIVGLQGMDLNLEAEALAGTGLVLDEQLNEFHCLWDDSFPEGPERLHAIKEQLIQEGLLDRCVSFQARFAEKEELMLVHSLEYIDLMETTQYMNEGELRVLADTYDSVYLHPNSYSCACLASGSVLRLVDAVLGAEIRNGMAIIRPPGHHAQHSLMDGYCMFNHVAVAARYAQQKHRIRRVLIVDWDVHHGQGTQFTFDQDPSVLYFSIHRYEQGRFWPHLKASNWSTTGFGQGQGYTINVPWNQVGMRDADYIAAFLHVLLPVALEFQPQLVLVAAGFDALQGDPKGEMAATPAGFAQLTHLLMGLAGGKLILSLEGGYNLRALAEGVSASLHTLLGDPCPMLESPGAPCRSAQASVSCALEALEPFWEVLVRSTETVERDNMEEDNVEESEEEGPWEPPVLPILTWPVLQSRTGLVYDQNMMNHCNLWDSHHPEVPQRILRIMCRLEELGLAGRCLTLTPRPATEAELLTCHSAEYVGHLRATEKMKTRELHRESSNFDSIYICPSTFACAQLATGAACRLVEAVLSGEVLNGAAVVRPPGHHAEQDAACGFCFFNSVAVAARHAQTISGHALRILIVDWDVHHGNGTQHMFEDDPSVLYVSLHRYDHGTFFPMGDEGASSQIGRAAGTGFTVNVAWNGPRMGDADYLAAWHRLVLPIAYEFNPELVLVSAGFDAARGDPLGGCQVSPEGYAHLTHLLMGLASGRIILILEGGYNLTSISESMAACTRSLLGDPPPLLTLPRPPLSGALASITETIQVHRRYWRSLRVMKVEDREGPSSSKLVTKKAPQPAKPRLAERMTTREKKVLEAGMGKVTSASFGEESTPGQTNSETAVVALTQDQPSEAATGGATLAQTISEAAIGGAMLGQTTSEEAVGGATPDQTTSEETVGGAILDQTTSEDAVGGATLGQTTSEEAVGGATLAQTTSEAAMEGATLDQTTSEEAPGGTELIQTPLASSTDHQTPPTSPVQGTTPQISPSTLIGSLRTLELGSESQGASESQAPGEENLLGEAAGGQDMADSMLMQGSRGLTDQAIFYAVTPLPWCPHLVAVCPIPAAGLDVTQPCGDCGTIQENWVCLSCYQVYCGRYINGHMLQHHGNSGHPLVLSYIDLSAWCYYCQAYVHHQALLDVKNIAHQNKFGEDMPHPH
# Procedure, shortened: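 Step one: pre-incubate recombinant human HDAC with test compound at 30 °C, with duration set per isoform. Step two: add fluorogenic-type acetyl-lysine substrate (FLUOR DE LYS, its Green variant, or trifluoroacetyl-L-lysine), 2× concentrated in Tris-HCl pH 8 buffer with NaCl, Tween-20 and glycerol. Step three: react at 30 °C.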
SMILES,residual percentage in rat S9 fraction [2] [%],residual percentage in rat plasma (Stability in rat plasma) [%],"residual percentage in human S9 fraction ([3]; human, 90 min, pH 7.4) [%]",residual percentage in human plasma [4] [%],IC50 (recombinant human HDAC6) [nM],IC50 [1] [nM],"residual percentage in human S9 fraction ([3]; human liver S9 fraction, after 90 min, 37° C.) [%]"
"Cn1c(Sc2c(F)cc(C(=O)NO)cc2F)nnc1-c1ccc(CN2CCOCC2)o1 [comp. 204, 3,5-difluoro-4-[[4-methyl-5-[5-(morpholinomethyl)-2-furyl]-1,2,4-triazol-3-yl]sulfanyl]benzenecarbohydroxamic acid]",72,89,84,79,7,15400,
"CN1CCN(Cc2ccc(-c3nnc(Sc4c(F)cc(C(=O)NO)cc4F)n3C)o2)CC1 [comp. 205, 3,5-difluoro-4-[[4-methyl-5-[5-[(4-methylpiperazin-1-yl)methyl]-2-furyl]-1,2,4-triazol-3-yl]sulfanyl]benzenecarbohydroxamic acid]",71,89,95,80,5,15400,
"CCc1oc(-c2nnc(Sc3c(F)cc(C(=O)NO)cc3F)n2C)cc1CN1CCCC1 [comp. 208, 4-[[5-[5-ethyl-4-(pyrrolidin-1-ylmethyl)-2-furyl]-4-methyl-1,2,4-triazol-3-yl]sulfanyl]-3,5-difluoro-benzenecarbohydroxamic acid]",81,81,81,87,4,15400,
"O=C(NO)c1ccc(Cn2nnnc2-c2ccccc2)cc1 [comp. 215, 4-[(5-phenyltetrazol-1-yl)methyl]benzenecarbohydroxamic acid]",65,57,82,90,,340,
"O=C(NO)c1cc(F)c(Cc2noc(-c3cncc(N4CC5(COC5)C4)c3)n2)c(F)c1 [compound 201, 3,5-difluoro-4-[[5-[5-(2-oxa-6-azaspiro[3.3]heptan-6-yl)-3-pyridyl]-1,2,4-oxadiazol-3-yl]methyl]benzenecarbohydroxamic acid]",34,95,,88,16,,75

# More lines, main results first:
residual percentage in rat S9 fraction [2] [%],residual percentage in rat plasma (Stability in rat plasma) [%],"residual percentage in human S9 fraction ([3]; human, 90 min, pH 7.4) [%]",residual percentage in human plasma [4] [%],IC50 (recombinant human HDAC6) [nM],SMILES,IC50 [1] [nM],"residual percentage in human S9 fraction ([3]; human liver S9 fraction, after 90 min, 37° C.) [%]"
62,89,84,91,,"O=C(NO)c1ccc(Cc2nnc(-c3ccccc3)[nH]2)cc1 [comp. 216, 4-[(5-phenyl-4H-1,2,4-triazol-3-yl)methyl]benzenecarbohydroxamic acid]",288,
62,82,86,96,10,"O=C(NO)c1cc(F)c(Cc2nnc(-c3cncc(N4CCOCC4)c3)s2)c(F)c1 [compound 197, 3,5-difluoro-4-[[5-(5-morpholino-3-pyridyl)-1,3,4-thiadiazol-2-yl]methyl]benzenecarbohydroxamic acid]",,
6,63,51,95,5,"O=C(NO)c1cc(F)c(Cc2nnc(-c3ccccc3)s2)c(F)c1 [compound 198, 3,5-difluoro-N-hydroxy-4-((5-phenyl-1,3,4-thiadiazol-2-yl)methyl)benzamide]",,
32,96,37,102,8,"COCCN(CCOC)c1cncc(-c2nc(Cc3c(F)cc(C(=O)NO)cc3F)no2)c1 [compound 200, 4-[[5-[5-[bis(2-methoxyethyl)amino]-3-pyridyl]-1,2,4-oxadiazol-3-yl]methyl]-3,5-difluoro-benzenecarbohydroxamic acid]",,

# Reference: patent US11351178B2, “Selective HDAC6 inhibitors” (ITALFARMACO S.P.A., priority 2017, dated 2022)
